What was measured:
[1] = molecular target: FL-AR^F876L (Homo sapiens, UniProt P10275, F877L); test: Dual-luciferase reporter assay for FL-AR F876L in PC3 cells
Description: Luciferase Reporter Assays for FL -ARF876L and FL-ARF876L/T877A
constructed on the basis of the human full length wild type AR plasmid pCMV -hAR
transfected with 70 ng/well of FL -AR plasmid together with 24 ng of ARR2PB -Luc, and 5 ng of Renilla. After 1 day incubation at 37 °C , the antagonistic models were employed
After another 24 h incubation, the luciferase activities were determined by the Dual -Glo Luciferase system (#E1910, Promega) according to the

[2] = system: Du145; test: MTT cell viability assay, Du145; type: cell-based; conditions: 72 h
Description: (§1) 3-(4,5-dimethythiazol-2-yl)-2,5-diphenyl-2-H-tetrazolium bromide (MTT) colorimetric assay was employed to investigate cell viability. Cells were seeded into 96-well plates with 2-5× 10^3 cells per well (5× 10^3 cells/well for LNCaP, 22RV1, NIH-3T3, GES-1, Chang, […]
(§2) NCI-H1299, U2OS, U87) for 1 day incubation at 37 °C. Then, the cells were treated with various concentrations of compounds (22.86 nM - 50 μM) and incubated for 72 h. Then, 10 μl MTT (5 mg/ml) was added into each well and incubated for 4 h. Afterwards, 100 μl of triplex 10% SDS-0.1% HCl-phosophate-buffered saline (PBS) solutions was added into each well and incubated for overnight. The absorbance at 570 nm was measured (Eon, Bioteck, Winooski, VT). […]

[3] = molecular target: T1, AR LBD dimer (Homo sapiens, UniProt P10275); test: SAXS and CXMS analysis of AR LBD dimerization; type: biochemical
T1 construct: The AR LBD (663-919) was fused into the pET50b vector with Nus-tag; Nus-tag (cleaved yes); made in house; host or cells: E. coli BL21 (DE3)
T1 sequence (P10275 663-919): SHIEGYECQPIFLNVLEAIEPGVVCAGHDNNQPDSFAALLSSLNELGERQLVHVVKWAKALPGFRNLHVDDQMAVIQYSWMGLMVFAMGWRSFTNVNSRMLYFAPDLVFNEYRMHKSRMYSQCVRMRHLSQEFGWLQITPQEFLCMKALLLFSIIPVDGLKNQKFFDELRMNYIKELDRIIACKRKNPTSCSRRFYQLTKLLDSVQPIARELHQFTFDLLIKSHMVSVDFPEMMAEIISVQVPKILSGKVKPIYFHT
Description: 30 μM AR LBD protein was crosslinked with a 50× molar excess of freshly prepared BS3 (#21580, ThermoFisher) in 20 mM HEPES (pH 7.4), 5% Glycerol, 150 mM NaCl, 10 μM DHT, with or without 90 μM M17-B15. The cross-linking reaction was conducted at room temperature with gentle mixing, and was quenched after 45 min with the addition of Tris-HCl buffer (pH 8.0) to a concentration of 20 mM.
Cross-linked proteins were precipitated with 6-fold volume of pre-cooled acetone for 2 h at -20 °C. Centrifuge at 14,000 rpm for 20 min, and discard the supernatant. Then added 20 μL 100 mM Tris-HCl buffer (pH 8.5), 8 M urea, and ultrasound for 20 min to assist protein dissolution. 5 mM reducing agent TCEP, 10 mM alkylating agent iodoacetamide, 1 mM CaCl2 and 20 mM methylamine were added in tandem. And 3-fold volume of 100 mM Tris pH 8.5 was added to dilute urea to 2 M. Then added trypsin (the mass ratio of enzyme to protein is 1:50) and digested the protein samples at 37 °C for 14 h. Finally, quenched the digestion reaction by adding formic acid with a final […]
An Easy nLC 1000 system (ThermoFisher) coupled to a Velos Pro Orbitrap Elite mass spectrometer (ThermoFisher) was used for mass spectrometry analysis. The resulting peptide mixture was vacuum-centrifuged to dryness, and reconstituted in 0.1% formic acid. […]
respectively. […] The scattering profile for matching buffer was also recorded and was subtracted. […]

[4] = system: PC3; test: MTT cell viability assay, PC3; type: cell-based; conditions: 72 h
Description: as §1, §2

[5] = Solubility (statement); type: physicochemical

FL-AR^F876L, sequence (P10275 whole entry F877L): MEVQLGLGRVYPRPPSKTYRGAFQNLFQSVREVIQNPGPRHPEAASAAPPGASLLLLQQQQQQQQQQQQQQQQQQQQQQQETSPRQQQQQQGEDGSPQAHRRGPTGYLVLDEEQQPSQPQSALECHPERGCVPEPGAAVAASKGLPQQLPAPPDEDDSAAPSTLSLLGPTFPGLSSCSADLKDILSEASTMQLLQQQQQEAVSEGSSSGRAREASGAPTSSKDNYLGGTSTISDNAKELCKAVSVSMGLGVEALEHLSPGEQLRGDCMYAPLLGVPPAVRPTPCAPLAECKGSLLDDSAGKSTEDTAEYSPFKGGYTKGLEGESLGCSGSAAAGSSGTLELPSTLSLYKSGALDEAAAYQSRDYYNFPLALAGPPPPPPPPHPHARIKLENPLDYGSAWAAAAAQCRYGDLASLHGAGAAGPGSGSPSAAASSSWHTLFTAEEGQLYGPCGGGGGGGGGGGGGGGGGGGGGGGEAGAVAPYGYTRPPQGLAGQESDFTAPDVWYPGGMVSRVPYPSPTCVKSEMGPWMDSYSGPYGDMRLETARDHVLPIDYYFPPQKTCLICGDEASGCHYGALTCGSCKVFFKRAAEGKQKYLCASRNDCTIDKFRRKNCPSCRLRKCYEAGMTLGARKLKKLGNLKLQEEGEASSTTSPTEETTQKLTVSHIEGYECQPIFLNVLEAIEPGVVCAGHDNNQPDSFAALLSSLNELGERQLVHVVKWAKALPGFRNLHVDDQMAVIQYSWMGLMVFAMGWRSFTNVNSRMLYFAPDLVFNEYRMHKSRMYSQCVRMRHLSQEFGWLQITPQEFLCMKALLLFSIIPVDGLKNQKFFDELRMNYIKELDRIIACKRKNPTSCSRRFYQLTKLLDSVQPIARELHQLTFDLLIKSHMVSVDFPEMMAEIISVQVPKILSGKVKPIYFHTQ

## CC(=O)Cc1nsc(NC(=O)c2cc(-c3cccc(C(F)(F)F)c3)oc2C)n1 [Compound M17-B15]
[1]
  IC50: 0.16 µM
[2]
  inhibition on the cell viability of Du145: does not show obvious inhibition
[3]; upon addition of compound
  Dmax value of the AR LBD (SAXS): markedly reduced
[3]; with DHT, 20% without M17-B15
  proportion of the AR LBD dimer: 15%
[4]
  inhibition on the cell viability of PC3: does not show obvious inhibition
[5]
  solubility: poor solubility

— publication PMC10141604, “Small-Molecule Inhibition of Androgen Receptor Dimerization as a Strategy against Prostate Cancer” (ACS Central Science, 2023)
